What is called IC50 is the concentration at which inhibition is half-maximal.

Drawing on US20250382297A1, “INHIBITORS OF FGFR2 AND FGFR3 AND USES THEREOF” (Insilico Medicine IP Limited, priority 2022, published 2025), this text covers IC50 for eight compounds.

Assay [1] addresses FGFR1 (Homo sapiens (Human), UniProt P11362). In words: FGFR biochemical assay (LanthaScreen TR-FRET kinase assay), FGFR1. (In general: TR-FRET usually uses a lanthanide donor and a delayed reading to cut background.)
Experimental: (§1) Convert Ratio values to percent inhibition values (Percent inhibition=(max−sample Ratio)/(max−min)*100) where “min” means the Ratio of no enzyme control and “max” means the Ratio of DMSO control. • Data are analyzed and curve fitting is performed by XLFit Excel add-in version 5.4.0.8. The IC50 calculation equation is: Y=Bottom+(Top-Bottom)/(1+ (IC50/X)^HillSlope.
Assay [2] addresses FGFR2 (Homo sapiens (Human), UniProt P21802). In words: FGFR biochemical assay (LanthaScreen TR-FRET kinase assay), FGFR2.
Experimental: as §1
Assay [3] has as its target FGFR3 (Homo sapiens (Human), UniProt P22607). In words: FGFR biochemical assay (LanthaScreen TR-FRET kinase assay), FGFR3.
Experimental: as §1
Assay [4] addresses FGFR4 (Homo sapiens (Human), UniProt P22455). The assay is described as follows: FGFR biochemical assay (LanthaScreen TR-FRET kinase assay), FGFR4.
Experimental: as §1
Setting [5] is: read-out: FGFR2 IC50, incubation with enzyme at room temperature for 10 minutes before substrate, ATP 22 μM, FGFR2 0.01 nM.
Setting [6] is: read-out: FGFR1 IC50, * incubation at room temperature for 60 minutes before addition of substrate solution, ATP 28 μM, FGFR1 0.01 nM.
Setting [7] is: read-out: FGFR2 IC50, * incubation at room temperature for 60 minutes before addition of substrate solution, ATP 22 μM, FGFR2 0.01 nM.

Molecules are shown by their SMILES. Where two headings read alike, the source gives them in different places.

Chain of FGFR3 (P22607 23-806): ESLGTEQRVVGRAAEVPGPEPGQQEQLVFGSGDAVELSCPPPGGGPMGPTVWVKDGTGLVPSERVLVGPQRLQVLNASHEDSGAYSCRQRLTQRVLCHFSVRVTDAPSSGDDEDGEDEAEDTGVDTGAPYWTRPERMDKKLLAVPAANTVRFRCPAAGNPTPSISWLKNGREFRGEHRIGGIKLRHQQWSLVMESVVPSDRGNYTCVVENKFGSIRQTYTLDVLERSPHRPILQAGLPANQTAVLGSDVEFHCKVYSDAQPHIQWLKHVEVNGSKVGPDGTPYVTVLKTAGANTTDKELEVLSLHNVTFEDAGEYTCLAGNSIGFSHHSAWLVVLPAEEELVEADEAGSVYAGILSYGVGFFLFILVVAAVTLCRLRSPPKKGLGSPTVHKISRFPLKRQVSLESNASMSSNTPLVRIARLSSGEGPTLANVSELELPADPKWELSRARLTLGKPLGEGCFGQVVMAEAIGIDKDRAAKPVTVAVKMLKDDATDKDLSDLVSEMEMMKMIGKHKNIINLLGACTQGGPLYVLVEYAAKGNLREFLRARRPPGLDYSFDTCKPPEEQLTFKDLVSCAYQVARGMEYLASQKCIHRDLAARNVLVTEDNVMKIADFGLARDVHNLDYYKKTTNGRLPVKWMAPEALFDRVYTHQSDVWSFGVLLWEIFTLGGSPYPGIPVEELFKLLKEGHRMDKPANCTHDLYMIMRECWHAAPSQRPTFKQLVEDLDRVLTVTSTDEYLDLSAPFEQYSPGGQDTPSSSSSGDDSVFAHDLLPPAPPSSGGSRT
Chain of FGFR1 (P11362 22-822): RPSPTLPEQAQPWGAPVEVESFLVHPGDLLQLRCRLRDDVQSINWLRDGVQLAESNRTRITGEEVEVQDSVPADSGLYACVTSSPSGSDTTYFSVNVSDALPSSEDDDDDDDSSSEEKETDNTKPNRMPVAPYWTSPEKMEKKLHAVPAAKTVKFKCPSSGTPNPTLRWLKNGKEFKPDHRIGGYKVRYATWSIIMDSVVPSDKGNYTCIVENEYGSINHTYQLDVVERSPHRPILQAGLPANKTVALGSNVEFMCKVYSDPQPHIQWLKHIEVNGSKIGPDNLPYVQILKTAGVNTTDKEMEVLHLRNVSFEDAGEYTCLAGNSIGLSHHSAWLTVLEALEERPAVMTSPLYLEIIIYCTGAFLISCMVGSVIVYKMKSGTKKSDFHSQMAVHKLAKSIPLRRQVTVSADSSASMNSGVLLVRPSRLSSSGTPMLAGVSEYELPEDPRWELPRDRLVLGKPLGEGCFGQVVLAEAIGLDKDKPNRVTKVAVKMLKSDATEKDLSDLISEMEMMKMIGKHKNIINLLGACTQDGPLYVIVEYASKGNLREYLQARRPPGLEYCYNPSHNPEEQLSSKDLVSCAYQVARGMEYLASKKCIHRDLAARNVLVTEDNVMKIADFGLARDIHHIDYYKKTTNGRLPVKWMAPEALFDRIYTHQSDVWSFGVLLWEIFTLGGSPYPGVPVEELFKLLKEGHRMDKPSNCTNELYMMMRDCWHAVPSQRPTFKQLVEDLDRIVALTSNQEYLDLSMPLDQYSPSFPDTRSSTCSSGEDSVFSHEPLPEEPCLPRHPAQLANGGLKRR
Chain of FGFR2 (P21802 22-821): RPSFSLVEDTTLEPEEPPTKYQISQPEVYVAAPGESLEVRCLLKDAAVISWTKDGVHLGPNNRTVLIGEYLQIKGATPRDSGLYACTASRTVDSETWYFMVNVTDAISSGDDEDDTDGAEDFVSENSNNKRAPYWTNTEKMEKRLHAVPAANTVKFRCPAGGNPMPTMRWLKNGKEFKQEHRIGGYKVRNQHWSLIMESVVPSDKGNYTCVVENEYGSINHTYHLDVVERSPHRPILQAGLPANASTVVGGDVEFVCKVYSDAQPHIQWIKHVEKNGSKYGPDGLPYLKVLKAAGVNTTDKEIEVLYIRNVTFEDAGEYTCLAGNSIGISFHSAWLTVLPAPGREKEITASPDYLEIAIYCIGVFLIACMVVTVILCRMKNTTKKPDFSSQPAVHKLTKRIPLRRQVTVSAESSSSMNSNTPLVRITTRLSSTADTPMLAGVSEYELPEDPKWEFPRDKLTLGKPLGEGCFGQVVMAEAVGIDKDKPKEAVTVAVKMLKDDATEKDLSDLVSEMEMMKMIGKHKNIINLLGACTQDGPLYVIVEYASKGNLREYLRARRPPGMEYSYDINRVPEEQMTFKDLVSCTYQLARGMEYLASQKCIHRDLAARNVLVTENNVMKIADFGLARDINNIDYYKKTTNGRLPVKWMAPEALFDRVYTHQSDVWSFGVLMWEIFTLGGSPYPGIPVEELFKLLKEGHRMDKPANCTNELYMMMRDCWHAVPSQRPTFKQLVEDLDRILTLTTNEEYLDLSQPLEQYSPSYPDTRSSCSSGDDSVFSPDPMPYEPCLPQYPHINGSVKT
Chain of FGFR4 (P22455 22-802): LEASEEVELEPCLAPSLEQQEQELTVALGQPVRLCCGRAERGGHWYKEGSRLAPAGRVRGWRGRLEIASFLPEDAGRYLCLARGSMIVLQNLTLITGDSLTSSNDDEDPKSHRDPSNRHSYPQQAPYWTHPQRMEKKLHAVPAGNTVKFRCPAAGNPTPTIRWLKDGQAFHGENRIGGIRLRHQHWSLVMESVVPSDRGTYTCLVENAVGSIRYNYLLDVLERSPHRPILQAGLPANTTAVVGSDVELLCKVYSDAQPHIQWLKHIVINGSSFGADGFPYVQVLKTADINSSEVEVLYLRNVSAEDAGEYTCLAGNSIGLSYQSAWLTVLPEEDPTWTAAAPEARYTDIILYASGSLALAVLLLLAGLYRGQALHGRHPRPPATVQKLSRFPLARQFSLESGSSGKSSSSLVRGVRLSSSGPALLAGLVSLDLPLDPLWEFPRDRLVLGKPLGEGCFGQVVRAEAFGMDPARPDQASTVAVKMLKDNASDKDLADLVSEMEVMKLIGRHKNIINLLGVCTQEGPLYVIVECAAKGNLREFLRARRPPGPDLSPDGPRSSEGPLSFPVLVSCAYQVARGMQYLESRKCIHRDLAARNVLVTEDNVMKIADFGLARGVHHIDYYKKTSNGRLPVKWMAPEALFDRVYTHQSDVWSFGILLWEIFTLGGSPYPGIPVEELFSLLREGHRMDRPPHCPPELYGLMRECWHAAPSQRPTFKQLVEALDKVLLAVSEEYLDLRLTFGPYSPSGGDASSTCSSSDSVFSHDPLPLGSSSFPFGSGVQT

Consider `C=CC(=O)Nc1ccc(-c2c(-c3ccc(Oc4cccc(C)n4)cc3)c(C(N)=O)c3cncc(C)n23)cc1` [Example 5, 6-(4-acrylamidophenyl)-4-methyl-7-(4-((6-methylpyridin-2-yl)oxy)phenyl)pyrrolo[1,2-a]pyrazine-8-carboxamide], for which the 50% inhibitory concentration (IC50) was 100 to 1000 nM in assay [1], less than 10 nM in assay [2] (setting [5]), 10 to 100 nM in assay [3] and 100 to 1000 nM in assay [4].

For the compound `C=CC(=O)Nc1ccc(-c2c(-c3ccc(Oc4cccc(C)n4)cc3)c(C(N)=O)c3cnc(C)cn23)cc1` [Example 7, 6-(4-acrylamidophenyl)-3-methyl-7-(4-((6-methylpyridin-2-yl)oxy)phenyl)pyrrolo[1,2-a]pyrazine-8-carboxamide], the 50% inhibitory concentration (IC50) in assay [1] was 100 to 1000 nM; in assay [2] (setting [5]), less than 10 nM; in assay [3], 10 to 100 nM; in assay [4] it was 100 to 1000 nM.

For the compound `C=C(F)C(=O)N1CCCc2cc(-c3c(-c4ccc(Oc5nccc(C)n5)c(F)c4)c(C(N)=O)c4cnc(C)cn34)c(F)cc21` [Example 98, 6-(7-fluoro-1-(2-fluoroacryloyl)-1,2,3,4-tetrahydroquinolin-6-yl)-7-(3-fluoro-4-((4-methylpyrimidin-2-yl)oxy)phenyl)-3-methylpyrrolo[1,2-a]pyrazine-8-carboxamide], the IC50 in assay [1] (setting [6]) is more than 1000 nM; in assay [2], 100 to 1000 nM; in assay [3], 100 to 1000 nM.

Regarding `C=C(F)C(=O)N1CCc2c1ccc(-c1c(-c3ccc(Oc4nccc(C)n4)c(F)c3)c(C(N)=O)c3cnc(C)cn13)c2F` [Example 99, 6-(4-fluoro-1-(2-fluoroacryloyl)indolin-5-yl)-7-(3-fluoro-4-((4-methylpyrimidin-2-yl)oxy)phenyl)-3-methylpyrrolo[1,2-a]pyrazine-8-carboxamide], the IC50 in assay [1] is 10 to 100 nM; in assay [2] (setting [7]), less than 10 nM; in assay [3] (read-out: FGFR3 IC50, * incubation at room temperature for 60 minutes before addition of substrate solution, ATP 35 μM, FGFR3 0.1 nM), less than 10 nM.

For the compound `C=CC(=O)N1CC=C(c2c(-c3ccc(Oc4nccc(C)n4)c(F)c3)c(C(N)=O)c3cnc(C)cn23)CC1` [Example 101, 6-(1-acryloyl-1,2,3,6-tetrahydropyridin-4-yl)-7-(3-fluoro-4-((4-methylpyrimidin-2-yl)oxy)phenyl)-3-methylpyrrolo[1,2-a]pyrazine-8-carboxamide], the IC50 in assay [1], in assay [2] and in assay [3] was 10 to 100 nM each time.

On to `C=C(F)C(=O)N1CC2(CC2)c2cc(-c3c(-c4ccc(Oc5nccc(C)n5)c(F)c4)c(C(N)=O)c4cnc(C)cn34)c(F)cc21` [Example 102, 6-(6′-fluoro-1′-(2-fluoroacryloyl)spiro[cyclopropane-1,3′-indolin]-5′-yl)-7-(3-fluoro-4-((4-methylpyrimidin-2-yl)oxy)phenyl)-3-methylpyrrolo[1,2-a]pyrazine-8-carboxamide], for which the IC50 in assay [1] (setting [6]) is less than 10 nM; in assay [2], 10 to 100 nM; in assay [3], 10 to 100 nM.

`C=C(F)C(=O)Nc1ccc(-c2c(-c3ccc(Oc4nccc(C)n4)c(F)c3)c(C(N)=O)c3cc(C4CC4)ncn23)cc1` [Example 105, 3-cyclopropyl-6-(3-fluoro-4-((4-methylpyrimidin-2-yl)oxy)phenyl)-7-(4-(2-fluoroacrylamido)phenyl)pyrrolo[1,2-c]pyrimidine-5-carboxamide]: the IC50 in assay [1] was 10 to 100 nM; in assay [2] (setting [7]), less than 10 nM; in assay [3], 10 to 100 nM.

As for `C=C(F)C(=O)Nc1ccc(-c2c(-c3ccc(Oc4nccc(C)n4)c(F)c3)c(C(N)=O)c3cncnn23)cc1` [Example 108, 6-(3-fluoro-4-((4-methylpyrimidin-2-yl)oxy)phenyl)-7-(4-(2-fluoroacrylamido)phenyl)pyrrolo[2,1-f][1,2,4]triazine-5-carboxamide], the IC50 in assay [1] (setting [6]) is more than 1000 nM; in assay [2], 10 to 100 nM; in assay [3], 100 to 1000 nM.
